# Values of other authors in patent publication US10172902B2, “Ocular eyelid scrub composition for the treatment of demodex blepharitis” (LUNOVUS, LLC, priority 2014, dated 2019).
# System: ocular Demodex
# Conditions: solutions, suspensions, sprays, lotions, gels, pastes, cleansers, creams or ointments
smiles,measurement,value
CC1=CCC(O)(C(C)C)CC1 (stereo not shown) [terpinen-4-ol],treating an ocular Demodex infestation or Demodex-induced blepharitis,effective
